Measurements reported in patent US11446298B2, “Pyrimidine derivatives” (Idorsia Pharmaceuticals Ltd, priority 2017, dated 2022).

Columns and labels:
Assay type in all cases: cell-based
PTGER2 (EP2) = biological target: T1, PTGER2 (EP2) (Homo sapiens, UniProt P43116); test: hEP2 b-Arrestin Assay (PathHunter HEK 293 PTGER2 b-arrestin cells, PGE2 5 μM); conditions: antagonistic activity, beta-arrestin assay, HEK 293 PTGER2 cells, PGE2 5 μM (EC80); read-out: hEP2 b-arr IC50
T1 construct: host or cells: HEK 293 (PathHunter, stably transfected)
T1 sequence (P43116 whole entry): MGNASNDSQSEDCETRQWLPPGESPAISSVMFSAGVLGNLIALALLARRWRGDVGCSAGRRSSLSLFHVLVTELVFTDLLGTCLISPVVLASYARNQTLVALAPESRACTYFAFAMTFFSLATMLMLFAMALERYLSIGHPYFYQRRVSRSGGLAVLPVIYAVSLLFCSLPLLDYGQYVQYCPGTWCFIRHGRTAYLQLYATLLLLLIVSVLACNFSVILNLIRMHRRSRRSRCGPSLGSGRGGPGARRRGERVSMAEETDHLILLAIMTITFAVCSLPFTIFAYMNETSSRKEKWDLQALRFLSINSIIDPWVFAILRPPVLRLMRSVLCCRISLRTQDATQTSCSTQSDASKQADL
Outline: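 PathHunter enzyme-fragment complementation in HEK 293 cells: compounds (10 μM-2 nM or 1 μM-0.2 nM) pre-incubated 15 min at 37 °C, then 5 μM PGE2 (EC80) for 120 min at 37 °C. Chemiluminescence read after 1 h detection; IC50 from duplicate dose-response fits, means of repeats.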

PTGER4 (EP4) = biological target: T2, PTGER4 (EP4) (Homo sapiens, UniProt P35408); test: hEP4 b-Arrestin Assay (PathHunter HEK 293 PTGER4 b-arrestin cells, PGE2 20 nM); conditions: antagonistic activity, beta-arrestin assay, HEK 293 PTGER4 cells, PGE2 20 nM (EC80); read-out: hEP4 b-arr IC50
T2 construct: host or cells: HEK 293 (PathHunter, stably transfected)
T2 sequence (P35408 whole entry): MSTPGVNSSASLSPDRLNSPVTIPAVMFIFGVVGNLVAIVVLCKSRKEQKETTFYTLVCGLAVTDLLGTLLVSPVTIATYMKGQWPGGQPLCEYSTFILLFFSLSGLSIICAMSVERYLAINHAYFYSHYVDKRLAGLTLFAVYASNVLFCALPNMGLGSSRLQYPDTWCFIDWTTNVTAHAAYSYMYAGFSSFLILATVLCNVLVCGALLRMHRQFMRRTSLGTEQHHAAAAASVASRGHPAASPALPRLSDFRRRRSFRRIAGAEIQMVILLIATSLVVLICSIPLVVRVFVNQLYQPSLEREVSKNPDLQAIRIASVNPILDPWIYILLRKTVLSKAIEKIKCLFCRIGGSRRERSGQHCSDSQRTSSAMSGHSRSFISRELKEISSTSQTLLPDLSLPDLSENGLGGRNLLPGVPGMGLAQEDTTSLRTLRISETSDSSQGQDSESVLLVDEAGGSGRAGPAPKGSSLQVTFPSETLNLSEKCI
Description: The antagonistic activities of the compounds of formula (I) on the EP2 and EP4 receptors are also determined in accordance with the following experimental method.
The assay is using the PathHunter™ HEK 293 PTGER2 and PTGER4 b-arrestin cell lines from DiscoverX. The system is based on the Enzyme Fragment Complementation Technology. Two complementing fragments of the b-galactosidase enzyme are expressed within stably transfected cells. The larger portion of b-gal, termed EA for Enzyme Acceptor, is fused to the C-terminus of b-arrestin 2. The smaller fragment, termed ProLink™ tag, is fused to PTGER2 (EP2) or PTRGER4 (EP4) at the C-terminus. Upon activation, b-arrestin is recruited which forces the interaction of ProLink and EA, allowing complementation of the two fragments of b-gal and the formation of a functional enzyme which is capable of hydrolysing the substrate and generating a chemiluminescent signal.
The HEK 293 PTGER4 b-arrestin cells (DiscoverX 93-030-4C1) are detached from culture dishes with a cell dissociation buffer (Invitrogen, 13151-014), and collected in growing medium (GM: DMEM+Glutamax-I (Invitrogen 32430)/10% FCS, 1% Penicilin/streptomycin). 5000 cells per well of a 384 well plate (white with white bottom Greiner 781080) are seeded in 20 ul per well of GM. Plate is incubated at 37° C., 5% CO2 for 24 hours.
Stock solutions of test compounds are made at a concentration of 10 mM in DMSO, and serially diluted in DMSO to concentrations required for inhibition dose response curves (tested concentration range 10 μM-2 nM or 1 μM-0.2 nM).
PGE2 (Cayman 14010, stock solution: 100 μM in DMSO) is used as agonist at 20 nM final concentration, corresponding to EC80.
Five microliters of diluted compounds are transferred into the assay plate. Plate is pre-incubated 15 minutes at 37° C. Then five microliters of PGE2 (final conc. 20 nM) are transferred into the assay plate. Plate is incubated 120 minutes at 37° C.
PathHunter Glo Detection Kit components are thawed and mix according to manufacturer's instructions: 1 part Galacton Star Substrate with 5 parts Emerald II™ Solution, and 19 parts of PathHunter Cell Assay Buffer, respectively. Twelve μl of reagent are transferred to the assay plate and incubate for 1 hour at room temperature in the dark. Luminescence counts are read on a BMG Fluostar Optima reader according to manufacturer's instructions.
For each compound concentration calculate of the percentage of activity compared to DMSO control value as average ±STDEV. (each concentration is measured in duplicate)
IC50 values and curves are generated with XLfit software (IDBS) using Dose-Response One Site model 203. When compounds were measured multiple times, mean values are given.

EP4 = biological target: T3, EP4 (Homo sapiens, UniProt P35408); test: hEP4 cAMP Assay (BT549 breast cancer cells, HTRF cAMP, PGE2 6 nM); conditions: antagonistic activity, PGE2 6 nM (EC80)
T3 construct: BT549 breast cancer cells, express high endogenous EP4 levels and very low EP2 levels; host or cells: BT549 breast cancer cells
T3 sequence (P35408 whole entry): as above
Outline: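 Antagonism is measured as inhibition of PGE2 (6 nM final, EC80) cAMP accumulation in EP4-expressing BT549 breast cancer cells, after a 45 min room-temperature compound pre-incubation and 30 min agonist step, with 2 mM IBMX present. HTRF ratio gives cAMP relative to DMSO; IC50 fitted, means over repeat runs.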

EP2 = biological target: T4, EP2 (Homo sapiens, UniProt P43116); test: hEP2 cAMP Assay (SF295 glioblastoma cells, HTRF cAMP, PGE2 75 nM); conditions: antagonistic activity, PGE2 75 nM (EC80)
T4 construct: SF295 glioblastoma cells express high endogenous EP2 and no EP4; host or cells: SF295 glioblastoma cells
T4 sequence (P43116 whole entry): as the sequence (P43116 whole entry) above
Outline: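 IC50 values derive from duplicate-point curves of percent cAMP relative to DMSO, read by HTRF (665/620 nm) against a cAMP calibrator. Compounds (30 μM to 0.01 nM ranges) were given 45 min at room temperature before 30 min with 75 nM PGE2, in EP2-only SF295 cells with 2 mM IBMX.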

Row | SMILES | IC50 (PTGER2 (EP2)) | IC50 (PTGER4 (EP4)) | IC50 (EP4) | IC50 (EP2)
1 | CCOc1cc(-c2cc(NCCc3cccc4c(F)cccc34)ncn2)ccc1C(=O)O [Example 183, 2-Ethoxy-4-{6-[2-(5-fluoro-naphthalen-1-yl)-ethylamino]-pyrimidin-4-yl}-benzoic acid] | 60 nM | 701 nM | – | –
2 | CCOc1cc(-c2cc(NCCc3ccc(C)c4ccccc34)ncn2)ccc1CC(=O)O [Example 99, (2-Ethoxy-4-{6-[2-(4-methyl-naphthalen-1-yl)-ethylamino]-pyrimidin-4-yl}-phenyl)-acetic acid] | – | 177 nM | 225 nM | 765 nM
3 | CCOc1cc(-c2cc(NCCc3c(OC)ccc4c3ccn4C)ncn2)ccc1CC(=O)O [Example 167, (2-Ethoxy-4-{6-[2-(5-methoxy-1-methyl-1H-indol-4-yl)-ethylamino]-pyrimidin-4-yl}-phenyl)-acetic acid] | 69 nM | 758 nM | – | –
4 | CCOc1ccc2sccc2c1CCNc1cc(-c2ccc(C(=O)O)c(SC)c2)ncn1 [Example 177, 4-{6-[2-(5-Ethoxy-benzo[b]thiophen-4-yl)-ethylamino]-pyrimidin-4-yl}-2-methylsulfanyl-benzoic acid] | 4 nM | 334 nM | – | –
5 | CCOc1cc(-c2cc(NCCc3ccc(Br)c4ccn(C)c34)ncn2)ccc1C(=O)O [Example 180, 4-{6-[2-(4-Bromo-1-methyl-1H-indol-7-yl)-ethylamino]-pyrimidin-4-yl}-2-ethoxy-benzoic acid] | 441 nM | 235 nM | – | –
6 | CSc1cc(-c2cc(NCCc3c(C)ccc4c3ccn4C)ncn2)ccc1C(=O)O [Example 176, 4-{6-[2-(1,5-Dimethyl-1H-indol-4H)-ethylamino]-pyrimidin-4-yl}-2-methylsulfanyl-benzoic acid] | 3 nM | 550 nM | – | –
7 | CCOc1cc(-c2cc(NCCc3ccc(Br)c4ccn(C)c34)ncn2)ccc1CC(=O)O [Example 161, (4-{6-[2-(4-Bromo-1-methyl-1H-indol-7-yl)-ethylamino]-pyrimidin-4-yl}-2-ethoxy-phenyl)-acetic acid] | 628 nM | 363 nM | – | –
8 | COc1ccc2cc(F)cc(CCNc3cc(-c4cc(C(F)(F)F)c(C(=O)O)s4)ncn3)c2n1 [Example 152, 5-{6-[2-(6-Fluoro-2-methoxy-quinolin-8-yl)-ethylamino]-pyrimidin-4-yl}-3-trifluoromethyl-thiophene-2-carboxylic acid] | – | 107 nM | 197 nM | 506 nM
9 | CCOc1cc(-c2cc(NCCc3ccc(Br)c4ccccc34)ncn2)ccc1CC(=O)O [Example 162, (4-{6-[2-(4-Bromo-naphthalen-1-yl)-ethylamino]-pyrimidin-4-yl}-2-ethoxy-phenyl)-acetic acid] | 219 nM | 114 nM | – | –
10 | Cc1c(C)n(C)c2c(CCNc3cc(-c4ccc(C(=O)O)c(OC5CCC5)c4)ncn3)cccc12 [Example 28, 2-Cyclobutoxy-4-{6-[2-(1,2,3-trimethyl-1H-indol-7-yl)-ethylamino]-pyrimidin-4-yl}-benzoic acid] | – | 1400 nM | 988 nM | 684 nM
11 | CCOc1cc(-c2cc(NCCc3ccc(C(F)F)c4ccccc34)ncn2)ccc1OCC(=O)O [Example 73, (4-{6-[2-(4-Difluoromethyl-naphthalen-1-yl)-ethylamino]-pyrimidin-4-yl}-2-ethoxy-phenoxy)-acetic acid] | – | 34 nM | 102 nM | 465 nM

Further lines, results first:

Row | IC50 (PTGER2 (EP2)) | IC50 (PTGER4 (EP4)) | IC50 (EP4) | IC50 (EP2) | SMILES
12 | 93 nM | 108 nM | – | – | COc1ccc2ccn(C)c2c1CCNc1cc(-c2ccc(C(=O)O)c(SC)c2)ncn1 [Example 168, 4-{6-[2-(6-Methoxy-1-methyl-1H-indol-7-yl)-ethylamino]-pyrimidin-4-yl}-2-methylsulfanyl-benzoic acid]
13 | 8 nM | 298 nM | – | – | COc1ccc2sccc2c1CCNc1cc(-c2ccc(C(=O)O)c(SC)c2)ncn1 [Example 174, 4-{6-[2-(5-Methoxy-benzo[b]thiophen-4-yl)-ethylamino]-pyrimidin-4-yl}-2-methylsulfanyl-benzoic acid]
14 | 9 nM | 500 nM | – | – | CCOc1cc(-c2cc(NCCc3c(OC)ccc4c3ccn4C)ncn2)ccc1C(=O)O [Example 186, 2-Ethoxy-4-{6-[2-(5-methoxy-1-methyl-1H-indol-4-yl)-ethylamino]-pyrimidin-4-yl}-benzoic acid]
15 | – | 5 nM | 17 nM | 305 nM | CCOc1cc(-c2cc(NCCc3c(OC)ccc4c(OC)cccc34)ncn2)sc1C(=O)O [Example 53, 5-{6-[2-(2,5-Dimethoxy-naphthalen-1-yl)-ethylamino]-pyrimidin-4-yl}-3-ethoxy-thiophene-2-carboxylic acid]
16 | 5 nM | 16 nM | – | – | CCOc1cc(-c2cc(NCCc3c(OC)ccc4ccccc34)ncn2)ccc1-c1noc(=S)[nH]1 [Example 189, 3-(2-Ethoxy-4-{6-[2-(2-methoxy-naphthalen-1-yl)-ethylamino]-pyrimidin-4-yl}-phenyl)-[1,2,4]-oxadiazole-5(4H)-thione]
17 | 962 nM | 887 nM | – | – | CCOc1cc(-c2cc(NCCc3c(Br)cc(F)c4ccccc34)ncn2)ccc1C(=O)O [Example 181, 4-{6-[2-(2-Bromo-4-fluoro-naphthalen-1-yl)-ethylamino]-pyrimidin-4-yl}-2-ethoxy-benzoic acid]
18 | – | 686 nM | 163 nM | 564 nM | COc1ccc2ncccc2c1CCNc1cc(-c2ccc3c(=O)[nH]n(C)c3c2)ncn1 [Example 117, 6-{6-[2-(6-Methoxy-quinolin-5-yl)-ethylamino]-pyrimidin-4-yl}-1-methyl-1,2-dihydro-indazol-3-one]
19 | – | 91 nM | 128 nM | 374 nM | CCOc1cc(-c2cc(NCCc3ccc(C(F)F)c4ccccc34)ncn2)ccc1C(=O)O [Example 71, 4-{6-[2-(4-Difluoromethyl-naphthalen-1-yl)-ethylamino]-pyrimidin-4-yl}-2-ethoxy-benzoic acid]
20 | – | 66 nM | 116 nM | 259 nM | CCOc1cc(-c2cc(NCCc3ccc(C)c4ccccc34)ncn2)ccc1OCC(=O)O [Example 76, (2-Ethoxy-4-{6-[2-(4-methyl-naphthalen-1-yl)-ethylamino]-pyrimidin-4-yl}-phenoxy)-acetic acid]
21 | 9 nM | – | 416 nM | 20 nM | COc1ccc2ccccc2c1CCNc1cc(-c2cc3ccc(C(=O)O)cc3[nH]2)ncn1 [Example 127, 2-{6-[2-(2-Methoxy-naphthalen-1-yl)-ethylamino]-pyrimidin-4-yl}-1H-indole-6-carboxylic acid]
22 | 62 nM | – | 308 nM | 41 nM | COc1ccc2ccccc2c1CCNc1cc(-c2ccc(C(=O)O)c(CC(C)C)c2)ncn1 [Example 122, 2-Isobutyl-4-{6-[2-(2-methoxy-naphthalen-1-yl)-ethylamino]-pyrimidin-4-yl}-benzoic acid]
